Literature values, collected in patent US20080044356A1, “Assemblies of Oligomeric Amyloid Beta Protein and Uses Thereof” (Regents of the University of Minnesota, priority 2004, published 2008).
Like-named read-outs stand apart in the source and are kept apart here.

Columns and labels:
[1] = tested on: rats
[2] = tested on: Alzheimer's disease (AD) patients
[3] = tested on: rats; remark: listed apart in the source
[4] = animals treated in utero (congenital hypothyroidism), versus controls
[5] = congenitally hypothyroid rats with replacement treatment

**Q.** For `CN1[C@@H]2CC[C@H]1C[C@@H](OC(=O)C(CO)c1ccccc1)C2` (stereo partly shown) [atropine], which switching errors ([1]; 1.0 mg/kg IP) is on record?
**A.** increases switching errors significantly

**Q.** And the “ALCR Cognitive Effect” value ([1]; route IP)?
**A.** Increased errors

**Q.** What about the “ALCR Running Response Rate” value ([1]; route IP) of the same compound?
**A.** No effect

**Q.** What about the “ALCR Running Response Rate” value ([1]; route IP, 1 mg/kg) of the same compound?
**A.** Reduced

**Q.** Which “effect on Aβ-induced ALCR performance decrements” value ([1]; after IH injection of pre-aggregated Aβ) does the source give for `CC(C)Cc1ccc(C(C)C(=O)O)cc1` (stereo not shown) [ibuprofen] here?
**A.** mitigated these effects

**Q.** What about the “ALCR Cognitive Effect” value ([1]; route PO) of the same compound?
**A.** Normalized errors

**Q.** And the “ALCR Running Response Rate” value ([1]; route PO)?
**A.** No effect

**Q.** With “AN-1792: beta amyloid peptide 1-42, used for active immunization” as the compound, how does the “adverse reaction to active immunization” value ([2]; human, in vivo) read?
**A.** risk of encephalitis

**Q.** What about the cognitive function ([2]; immunization, subset of AD patients) of the same compound?
**A.** encouraging preliminary reports

**Q.** Which “learning to criterion in the ALCR task” value [1, 4] does the source give for `Cn1cc[nH]c1=S` [methimzole, methimazole] here?
**A.** significantly slower learning to criterion

**Q.** And the “ALCR Cognitive Effect” value ([1]; route PO)?
**A.** Slow learning

**Q.** What about the “ALCR Running Response Rate” value ([1]; route PO) of the same compound?
**A.** No effect

**Q.** And the “motivation for food in the PR task” value [3, 4]?
**A.** not different from that of controls

**Q.** What about the “Direct test of Motivation” value ([3]; route PO, FOA, PR assessments) of the same compound?
**A.** No effect

**Q.** Which “learning to criterion and error rates in the ALCR task” value [1, 5] does the source give for `N[C@@H](Cc1cc(I)c(Oc2cc(I)c(O)c(I)c2)c(I)c1)C(=O)O` [thyroxin, thyroxine] here?
**A.** normal learning to criterion and error rates

**Q.** And the “motivation for food in the PR task” value [3, 5]?
**A.** performed equally well
